Data as given in patent publication US4255183A, “Substituted phenyl urea and herbicides for use in paddy field” (Hokko Chemical Industry Co., Ltd., priority 1977, dated 1981).
Like-named read-outs stand apart in the source and are kept apart here.

Tests used:
Dopatrium junceum = test: Test Example 5: Wagner pot test, herbicidal effect on Dopatrium junceum; assay type: in vivo
Experimental: (§1) In a 1/7500 are Wagner pot, sieved paddy field soil (alluvial soil) was charged. Thereafter, in the center portion of the pot, 2 roots of paddy rice (Asahi species) at the 2- to 3-leaf stage were transplanted and 20 seeds of Bulrush per pot were seeded in the surface of the above soil. The pot was submerged at the depth of about 2 cm. The other Dopatrium junceum and umbrella plant were generated naturally. After seeding, when each of the weeds reached the same leaf age as defined in Table 5 given herein, a predetermined concentration of the emulsion prepared according to Example 4 was applied dropwise on the surface of the pot. The test was carried out by repeating the same test three times per area and the results were determined 20 days after the application of the chemicals with regard to the herbicidal effect and chemical injury on paddy rice on the basis of the evaluation index as shown below.
(§2) As the comparative chemicals Molinate, Benthiocarb and DCMU, those commercially available were used.
(§3) In the above table, the inhibition rate was calculated according to the method as described in Test Example 1.

Bulrush = test: Test Example 5: Wagner pot test, herbicidal effect on Bulrush; assay type: in vivo
Experimental: as §1, §2, §3

various weeds = conditions: known upland herbicides; cited from earlier work
[1] = system: Echinochloa crus-galli var. oryzicola; test: Test Example 1: pot test on selectivity, inhibition of Echinochloa crus-galli var. oryzicola; assay type: in vivo; conditions: Echinochloa crus-galli, 720 h
Experimental: (§4) In a Wagner pot of 1/500 are, paddy field soil (alluvial soil) was placed and 50 seeds of Echinochloa crus-galli var. oryzicola and 30 seeds of paddy rice were seeded in the surface layer of said soil and the submerging depth was kept at about 1 cm. When Echinochloa crus-galli var. oryzicola reached at the one leaf stage and 5-leaf stage, the emulsion of a predetermined concentration, prepared according to Example 4 was added dropwise. After 30 days from the treatment with the chemical, dry weights of Echinochloa crus-galli var. oryzicola and paddy rice were measured and the inhibition rate was calculated with reference to untreated area. [formula]
(§5) The comparative chemicals used, i.e. DCMU and Linuron, were those commercially available, and the comparative chemicals A and B used were prepared according to the process for formulating the compound of this invention.

paddy rice [2] = test: Test Example 1: pot test on selectivity, inhibition of paddy rice; assay type: in vivo; conditions: for inhibition at 750 g/ha / inhibition at 1500 g/ha / inhibition at 3000 g/ha / inhibition at 6000 g/ha / inhibition at 9000 g/ha: Oryza sativa, 720 h; for selectivity between Echinochloa crus-galli var. oryzicola and paddy rice: in vivo
Experimental: as §4, with “When Echinochloa crus-galli var. oryzicola reached at the one leaf stage and 5-leaf stage, the emulsion of a predetermined concentration, prepared according to Example 4 was added dropwise.” left out
as §5

paddy rice [3] = conditions: known upland herbicides; cited from earlier work
paddy rice [4] = test: Test Example 5: Wagner pot test, chemical injury on paddy rice; assay type: in vivo, paddy rice (Asahi species); also: key: 5: Completely killed; 4: Considerably injured; 3: Moderately injured; 2: A little injured; 1: Slightly injured; 0: Not injured
Experimental: as §1, §2

Umbrella plant = test: Test Example 5: Wagner pot test, herbicidal effect on umbrella plant; assay type: in vivo; conditions: 20 days after application
Experimental: as §1, §2, §3

[5] = 300 g/10a, leaf age 3, 20 days after application
[6] = 600 g/10a, leaf age 3, 20 days after application
[7] = read-out: Inhibition (%) by treatment at 1-leaf stage, E. crus-galli var. oryzicola
[8] = read-out: Inhibition (%) by treatment at 5-leaf stage, E. crus-galli var. oryzicola
[9] = read-out: Inhibition (%) by treatment at 1-leaf stage, paddy rice
[10] = read-out: Inhibition (%) by treatment at 5-leaf stage, paddy rice

SMILES: CN(C)C(=O)Nc1ccc(Cl)c(Cl)c1 [DCMU, 3-(3,4-dichlorophenyl)-1,1-dimethyl urea]
- Weed kill degree, Dopatrium junceum (Dopatrium junceum; 300 g/10a, leaf age 2, 20 days after application): 5 (100)
- Weed kill degree, Dopatrium junceum (Dopatrium junceum; [5]): 5 (100)
- Weed kill degree, Dopatrium junceum (Dopatrium junceum; 600 g/10a, leaf age 2, 20 days after application): 5 (100)
- Weed kill degree, Dopatrium junceum (Dopatrium junceum; [6]): 5 (100)
- Weed kill degree, Bulrush (Bulrush; [5]): 5 (100)
- Weed kill degree, Bulrush (Bulrush; 300 g/10a, leaf age 3-5, 20 days after application): 5 (100)
- Weed kill degree, Bulrush (Bulrush; [6]): 5 (100)
- Weed kill degree, Bulrush (Bulrush; 600 g/10a, leaf age 3-5, 20 days after application): 5 (100)
- herbicidal activity against various weeds (various weeds): strong herbicidal activity
- inhibition at 750 g/ha [1, 7]: 91%
- inhibition at 1500 g/ha [1, 7]: 100%
- inhibition at 3000 g/ha [1, 7]: 100%
- inhibition at 6000 g/ha [1, 7]: 100%
- inhibition at 9000 g/ha [1, 7]: 100%
- inhibition at 750 g/ha [1, 8]: 76%
- inhibition at 1500 g/ha [1, 8]: 100%
- inhibition at 3000 g/ha [1, 8]: 100%
- inhibition at 6000 g/ha [1, 8]: 100%
- inhibition at 9000 g/ha [1, 8]: 100%
- inhibition at 750 g/ha (paddy rice [2]; [9]): 92%
- inhibition at 1500 g/ha (paddy rice [2]; [9]): 100%
- inhibition at 3000 g/ha (paddy rice [2]; [9]): 100%
- inhibition at 6000 g/ha (paddy rice [2]; [9]): 100%
- inhibition at 9000 g/ha (paddy rice [2]; [9]): 100%
- inhibition at 750 g/ha (paddy rice [2]; [10]): 61%
- inhibition at 1500 g/ha (paddy rice [2]; [10]): 100%
- inhibition at 3000 g/ha (paddy rice [2]; [10]): 100%
- inhibition at 6000 g/ha (paddy rice [2]; [10]): 100%
- inhibition at 9000 g/ha (paddy rice [2]; [10]): 100%
- selectivity between Echinochloa crus-galli var. oryzicola and paddy rice (paddy rice [2]): kill not only Echinochloa crus-galli var. oryzicola but also paddy rice
- chemical injury to paddy rice (paddy rice [3]): strong chemical injury to paddy rice
- Chemical injury on paddy rice (paddy rice [4]; 300 g/10a, 3 tillers, 20 days after application): 4
- Chemical injury on paddy rice (paddy rice [4]; [5]): 5
- Chemical injury on paddy rice (paddy rice [4]; 600 g/10a, 3 tillers, 20 days after application): 5
- Chemical injury on paddy rice (paddy rice [4]; [6]): 5
- Weed kill degree, Umbrella plant (Umbrella plant; 300 g/10a, leaf age 2 (first group of columns)): 5 (100)
- Weed kill degree, Umbrella plant (Umbrella plant; 300 g/10a, leaf age 2 (second group of columns)): 4-5
- Weed kill degree, Umbrella plant (Umbrella plant; 600 g/10a, leaf age 2 (first group of columns)): 5 (100)
- Weed kill degree, Umbrella plant (Umbrella plant; 600 g/10a, leaf age 2 (second group of columns)): 5 (100)

SMILES: CON(C)C(=O)Nc1ccc(Cl)c(Cl)c1 [Linuron, 3-(3,4-dichlorophenyl)-1-methoxy-1-methyl urea]
- herbicidal activity against various weeds (various weeds): strong herbicidal activity
- inhibition at 750 g/ha [1, 7]: 82%
- inhibition at 1500 g/ha [1, 7]: 100%
- inhibition at 3000 g/ha [1, 7]: 100%
- inhibition at 6000 g/ha [1, 7]: 100%
- inhibition at 9000 g/ha [1, 7]: 100%
- inhibition at 750 g/ha [1, 8]: 72%
- inhibition at 1500 g/ha [1, 8]: 100%
- inhibition at 3000 g/ha [1, 8]: 100%
- inhibition at 6000 g/ha [1, 8]: 100%
- inhibition at 9000 g/ha [1, 8]: 100%
- inhibition at 750 g/ha (paddy rice [2]; [9]): 81%
- inhibition at 1500 g/ha (paddy rice [2]; [9]): 100%
- inhibition at 3000 g/ha (paddy rice [2]; [9]): 100%
- inhibition at 6000 g/ha (paddy rice [2]; [9]): 100%
- inhibition at 9000 g/ha (paddy rice [2]; [9]): 100%
- inhibition at 750 g/ha (paddy rice [2]; [10]): 53%
- inhibition at 1500 g/ha (paddy rice [2]; [10]): 100%
- inhibition at 3000 g/ha (paddy rice [2]; [10]): 100%
- inhibition at 6000 g/ha (paddy rice [2]; [10]): 100%
- inhibition at 9000 g/ha (paddy rice [2]; [10]): 100%
- selectivity between Echinochloa crus-galli var. oryzicola and paddy rice (paddy rice [2]): kill not only Echinochloa crus-galli var. oryzicola but also paddy rice
- chemical injury to paddy rice (paddy rice [3]): strong chemical injury to paddy rice
